In ChEMBL document CHEMBL3885881, “DrugMatrix”:

Species on record: Rattus norvegicus
Assay: DrugMatrix - Regimen: Daily Repeat
Format: toxicity, organism-based, Sprague-Dawley
Set-up: regimen Daily Repeat, gender Male, age 6-8 weeks
Settings: in vivo, po, route oral GAVAGE, vehicle 100 % WATER; for ABSOLUTE BASOPHIL / ABSOLUTE EOSINOPHIL / ABSOLUTE LYMPHOCYTE / ABSOLUTE MONOCYTE / ABSOLUTE SEGMENTED NEUTROPHIL / BASOPHIL / EOSINOPHIL / ERYTHROCYTE COUNT / HEMATOCRIT / HEMOGLOBIN / LEUKOCYTE COUNT / LYMPHOCYTE / MEAN CORPUSCULAR HEMOGLOBIN / MEAN CORPUSCULAR HEMOGLOBIN CONCENTRATION / MEAN CORPUSCULAR VOLUME / MONOCYTE / NEUTROPHIL / NUCLEATED RED BLOOD CELLS / PLATELET COUNT: tissue Blood; for ALANINE AMINOTRANSFERASE / ALBUMIN / ALKALINE PHOSPHATASE / ASPARTATE AMINOTRANSFERASE / BLOOD UREA NITROGEN / CARBON DIOXIDE / CHLORIDE / CHOLESTEROL / CREATINE PHOSPHOKINASE / CREATININE / GLUCOSE / LACTATE DEHYDROGENASE / LIPASE / PHOSPHORUS / POTASSIUM / SODIUM / TOTAL BILIRUBIN / TOTAL PROTEIN / URIC ACID: tissue Plasma
[1] = 4.5 mg/kg, 120 h, dose level Low, time 5 day
[2] = 45 mg/kg, 72 h, dose level High, time 3 day
[3] = 45 mg/kg, 120 h, dose level High, time 5 day

## NN [HYDRAZINE]
[1]
  ABSOLUTE BASOPHIL: 0 CELLS/uL
  ABSOLUTE EOSINOPHIL: 61.33 CELLS/uL
  ABSOLUTE LYMPHOCYTE: 9152.67 CELLS/uL
  ABSOLUTE MONOCYTE: 216 CELLS/uL
  ABSOLUTE SEGMENTED NEUTROPHIL: 1236.67 CELLS/uL
  BASOPHIL: 0%
  EOSINOPHIL: 0.67%
  ERYTHROCYTE COUNT: 5.22 x10E6/uL
  HEMATOCRIT: 32.97%
  HEMOGLOBIN: 13.03 G/DL
  LEUKOCYTE COUNT: 10.67 x10E3/uL
  LYMPHOCYTE: 85.33%
  MEAN CORPUSCULAR HEMOGLOBIN: 25 pg
  MEAN CORPUSCULAR HEMOGLOBIN CONCENTRATION: 39.57 G/DL
  MEAN CORPUSCULAR VOLUME: 63.23 fL
  MONOCYTE: 2%
  NEUTROPHIL: 12%
  NUCLEATED RED BLOOD CELLS: 0 /100WBC
  PLATELET COUNT: 1367.67 x10E3/uL
  ALANINE AMINOTRANSFERASE: 34.33 u/L
  ALBUMIN: 4.27 G/DL
  ALKALINE PHOSPHATASE: 357 u/L
  ASPARTATE AMINOTRANSFERASE: 88.33 u/L
  BLOOD UREA NITROGEN: 18.33 mg/dL
  CARBON DIOXIDE: 28 mmol/L
  CHLORIDE: 100 MEQ/L
  CHOLESTEROL: 80 mg/dL
  CREATINE PHOSPHOKINASE: 469 u/L
  CREATININE: 0.17 mg/dL
  GLUCOSE: 135.67 mg/dL
  LACTATE DEHYDROGENASE: 538.33 u/L
  LIPASE: 11 u/L
  PHOSPHORUS: 11.77 mg/dL
  POTASSIUM: 5.73 MEQ/L
  SODIUM: 142.13 MEQ/L
  TOTAL BILIRUBIN: 0.13 mg/dL
  TOTAL PROTEIN: 5.87 G/DL
  URIC ACID: 1.37 mg/dL
[2]
  ABSOLUTE BASOPHIL: 0 CELLS/uL
  ABSOLUTE EOSINOPHIL: 101.33 CELLS/uL
  ABSOLUTE LYMPHOCYTE: 9888 CELLS/uL
  ABSOLUTE MONOCYTE: 143.33 CELLS/uL
  ABSOLUTE SEGMENTED NEUTROPHIL: 634 CELLS/uL
  BASOPHIL: 0%
  EOSINOPHIL: 1%
  ERYTHROCYTE COUNT: 5.85 x10E6/uL
  HEMATOCRIT: 35.23%
  HEMOGLOBIN: 13.87 G/DL
  LEUKOCYTE COUNT: 10.77 x10E3/uL
  LYMPHOCYTE: 91.67%
  MEAN CORPUSCULAR HEMOGLOBIN: 23.77 pg
  MEAN CORPUSCULAR HEMOGLOBIN CONCENTRATION: 39.43 G/DL
  MEAN CORPUSCULAR VOLUME: 60.27 fL
  MONOCYTE: 1.33%
  NEUTROPHIL: 6%
  NUCLEATED RED BLOOD CELLS: 0.33 /100WBC
  PLATELET COUNT: 1202 x10E3/uL
  ALANINE AMINOTRANSFERASE: 14 u/L
  ALBUMIN: 4.07 G/DL
  ALKALINE PHOSPHATASE: 403.33 u/L
  ASPARTATE AMINOTRANSFERASE: 77.67 u/L
  BLOOD UREA NITROGEN: 17.67 mg/dL
  CARBON DIOXIDE: 31.33 mmol/L
  CHLORIDE: 98.33 MEQ/L
  CHOLESTEROL: 44 mg/dL
  CREATINE PHOSPHOKINASE: 676.33 u/L
  CREATININE: 0.11 mg/dL
  GLUCOSE: 133.33 mg/dL
  LACTATE DEHYDROGENASE: 533 u/L
  LIPASE: 11 u/L
  PHOSPHORUS: 11.23 mg/dL
  POTASSIUM: 6.63 MEQ/L
  SODIUM: 138.67 MEQ/L
  TOTAL BILIRUBIN: 0.13 mg/dL
  TOTAL PROTEIN: 5.5 G/DL
  URIC ACID: 1.6 mg/dL
[3]
  ABSOLUTE BASOPHIL: 0 CELLS/uL
  ABSOLUTE EOSINOPHIL: 63.33 CELLS/uL
  ABSOLUTE LYMPHOCYTE: 8413.33 CELLS/uL
  ABSOLUTE MONOCYTE: 93 CELLS/uL
  ABSOLUTE SEGMENTED NEUTROPHIL: 730.33 CELLS/uL
  BASOPHIL: 0%
  EOSINOPHIL: 0.67%
  ERYTHROCYTE COUNT: 5.35 x10E6/uL
  HEMATOCRIT: 31.4%
  HEMOGLOBIN: 12.23 G/DL
  LEUKOCYTE COUNT: 9.3 x10E3/uL
  LYMPHOCYTE: 90.67%
  MEAN CORPUSCULAR HEMOGLOBIN: 22.9 pg
  MEAN CORPUSCULAR HEMOGLOBIN CONCENTRATION: 38.97 G/DL
  MEAN CORPUSCULAR VOLUME: 58.77 fL
  MONOCYTE: 1%
  NEUTROPHIL: 7.67%
  NUCLEATED RED BLOOD CELLS: 0 /100WBC
  PLATELET COUNT: 1463.33 x10E3/uL
  ALANINE AMINOTRANSFERASE: 14.67 u/L
  ALBUMIN: 4 G/DL
  ALKALINE PHOSPHATASE: 346 u/L
  ASPARTATE AMINOTRANSFERASE: 75.67 u/L
  BLOOD UREA NITROGEN: 18.67 mg/dL
  CARBON DIOXIDE: 25.33 mmol/L
  CHLORIDE: 99 MEQ/L
  CHOLESTEROL: 50.67 mg/dL
  CREATINE PHOSPHOKINASE: 391.33 u/L
  CREATININE: 0.11 mg/dL
  GLUCOSE: 153.33 mg/dL
  LACTATE DEHYDROGENASE: 326 u/L
  LIPASE: 11.33 u/L
  PHOSPHORUS: 11.23 mg/dL
  POTASSIUM: 6.42 MEQ/L
  SODIUM: 139.93 MEQ/L
  TOTAL BILIRUBIN: 0.2 mg/dL
  TOTAL PROTEIN: 5.37 G/DL
  URIC ACID: 1.4 mg/dL
